From US20250115872A1, “GENERATION OF BROWN ADIPOCYTES FROM HUMAN PLURIPOTENT STEM CELLS” (The Brigham and Women's Hospital, Inc., priority 2022, published 2025) come the findings set out here.

The test relates to iPSC-BAs. As to the kind of experiment: Seahorse assay, oxygen consumption rate in iPSC-BAs. Type of test: cell-based, human. The protocol: FIGS. 8A-D: FIG. 8A—RT-qPCR analysis for UCP1 on 40 day old replated iPSC-derived adipogenic cultures treated with 10 μM forskolin or vehicle control DMSO treatment for 4 hours. Relative gene expression is shown as relative change to undifferentiated iPSC. Mean±SD, n=5, t-test, p<0.01. FIG. 8B—Measurement of glycerol released in culture medium 40 day old replated iPSC-derived adipogenic cultures treated with 10 μM forskolin or vehicle control DMSO treatment for 4 hours. Glycerol amount normalized using total protein amount. Mean±SD, n=4, t-test, p≤0.01. FIG. 8C—Measurement of fluorescent intensity of thermosensitive ERthermAC dye in iPSC derived precursors on day 20 of differentiation and brown adipocytes after 40 days of replating in response to 10 μM forskolin or vehicle control DMSO. Each data point represents Mean±SD, n=3, t-test, p=0.0009. FIG. 8D—Seahorse analysis to measure oxygen consumption rate in iPSC derived precursors on day 20 of differentiation and brown adipocytes after 40 days of replating in response to 1.5 μM oligomycin, 10 μM forskolin or vehicle control DMSO and 1 μM Rotenone and Antimycin (Rot/AA), respectively. Adipocytes or precursor cells were in XFe96 cell culture plates one week prior to the assay. […]
Agilent Seahorse XFe96 Analyzer was used to measure oxygen consumption in live iPSC-BAs and precursor cells following manufacturer's instructions. […] Basal respiration was measured 3 times in the assay medium. […] Cells were then treated with 10 μM Forskolin (Sigma-Aldrich, F6886) or DMSO (Sigma-Aldrich, D2650) and oxygen consumption rate (OCR) was measured for 70 minutes (12 measurements). […] Cells were automatically segmented using custom code in Fiji and number of DAPI and mCherry positive cells were quantified. […]
The process of thermogenesis is driven by the flow of protons through UCP1 in the mitochondrial inner membrane. To examine whether forskolin-induced thermogenesis in iPSC-BAs is coupled to proton leak in mitochondria, we measured oxygen consumption rate (OCR) with a Seahorse metabolic flux analyzer in 40 day-old replated cultures ([…]). […]

Setting [1] is: 1 μM Rotenone and Antimycin (Rot/AA), last step, electron transport chain block.

Regarding Antimycin, the “oxygen consumption rate (OCR)” value under setting [1] is reported as “drop of OCR”.

`CC[C@H]1/C=C/C=C/C[C@@H](C)[C@H](O)[C@@](C)(O)C(=O)[C@@H](C)[C@H](O)[C@@H](C)C(=O)[C@@H](C)[C@H](O)[C@@H](C)/C=C/C(=O)O[C@@H]2[C@H](C)[C@H](CC1)O[C@]1(CC[C@H](C)[C@H](C[C@@H](C)O)O1)[C@H]2C` [Oligomycin]: under “1.5 μM Oligomycin alone, versus basal respiration”, the “oxygen consumption rate (OCR)” value is reported as “the OCR in cells decreased”.

Consider `C=C(C)[C@H]1Cc2c(ccc3c2O[C@@H]2COc4cc(OC)c(OC)cc4[C@@H]2C3=O)O1` [Rotenone], for which, under setting [1], the “oxygen consumption rate (OCR)” value is listed as “drop of OCR”.
